# Source: paper PMC11618975, “Design and Development of Novel Hybrids Based on Pyrrolo[2,1‐f][1,2,4]Triazine and 1‐(Methylpiperidin‐4‐yl) Aniline–Based Analogs: Exploring the Utility as Anticancer Agents via MERTK Inhibition” (Chemical Biology & Drug Design, 2024)
# Entries after “also recorded” stand apart in the source; their conditions may differ. Where two headings read alike, the source gives them in different places.
# What was measured:
# [1] = tested on: MCF-7 breast cancer cells; test: Cell viability (resazurin) assay, MCF-7; format: cell-based; details: read-out: IC50 values (mean ± SD) MCF-7
# Method: (§1) This includes lung cancer cells (A549) and breast cancer cells (MCF‐7 and MDA‐MB‐231). […] The remaining compounds were also found to portray the inhibition at a low micromolar range and better than the cisplatin, employed as a positive control during the experiment.
# (§2) The cell viability assay of new compounds was performed against A549, MCF‐7, and MDA‐MB‐231 carcinoma cell lines. The cells (2500 cells/well) were seeded in a 96‐well plate using DMEM media (Gibco by Life Technologies) consisting of 10% FBS and subjected to incubation at 37°C for 24 h in 5% CO2 in a Nuaire incubator (humidified) for adherence to surface and growth. After 24 h, cells were subjected to treatment against target compounds (1K1‐1K5) at different concentrations (final concentrations ranging from 0.01–30 μM) and left for incubation for 72 h at the same conditions as mentioned above. The same procedure was repeated after 72 h after replacing the remaining test compound with fresh media and incubating treated cells for a further 48 h. After incubation, the remaining compounds with media were removed followed by washing with fresh media and the addition of 100 μL of resazurin (1 mM, Sigma). The 96‐well plate was incubated for 4 h at room temperature. A multimode microplate reader was used to record fluorescence at 535 nm (excitation) and 590 nm (emission) wavelengths. Background fluorescence was subtracted for calculating final results and avoiding any interference and normalized against vehicle control (DMSO treated cells) to calculate final cell viability. Cell viability (percentage) was used to calculate the IC50 values of the target compounds using fitting the curve to the “four‐parameter variable slope logistic model” using Prism Graph Pad (Kathuria et al. [2023]; Rani et al. [2023]).
# [2] = tested on: A549 lung cancer cells; test: Cell viability (resazurin) assay, A549; format: cell-based; details: read-out: IC50 values (mean ± SD) A549
# Method: as §1, §2
# [3] = tested on: MDA-MB-231 breast cancer cells; test: Cell viability (resazurin) assay, MDA-MB-231; format: cell-based; details: MDA-MB-231 cells, read-out: IC50 values (mean ± SD) MDA-MB-231
# Method: as §1, §2
# [4] = Human liver microsomal stability (DMPK); format: in vitro ADME; details: for % parent remaining: human liver microsomes 0.5 mg/mL, 1 μM compound, NADPH, 30 min; for half-life at 1 μM: human, liver microsomes, pH 7.4, human liver microsomes, read-out: T 1/2 (HLM); for microsomal CLint at 1 μM: pH 7.4, human liver microsomes, read-out: CLint (HLM)
# Method: (§3) To understand the intrinsic pharmacokinetics of synthetics and their stability in relation to human liver microsomal (HLM) and mouse liver microsomal (MLM), we performed the DMPK studies.
# (§4) The DMPK evaluation involves multiple reagents and instruments. The chemical and reagents include synthesized target molecules (at a concentration of 1–3 mg), DMSO (HPLC grade), PBS (pH = 7.4), NADPH, and liver microsomes (human and mouse) procured from Thermo. The instruments include Nexera X2 UPLC with an AB Sciex QTrap 4500 MS/MS detector (Shimadzu), single and multichannel micropipette (Eppendorf USA and Thermo), a 96‐well plate (1 mL capacity with deep wells) vortex mixer (Tarsons), centrifuge tubes (Tarsons) water bath (MRC), and a centrifuge (Thermo). The fresh stock solutions (10 mM) were prepared and incubations were carried out in duplication. Each well‐comprised potassium phosphate buffer (100 mM, pH 7.4) with 0.5 mg/mL microsome, NADPH (1 mM), and target molecule (1 μM). After 30 min incubation (37°C), the aliquots were taken at 0 and 30 min and quenched with chilled acetonitrile comprising Terfenadine as internal standard. The samples were centrifuged at 4000 rpm at 4°C, and the supernatant was subjected to LC–MS/MS for analysis. The experiment was used to determine the half‐life of the compound with the help of peak area ratio relative to the internal standard.
# [5] = Mouse liver microsomal stability (DMPK); format: in vitro ADME; details: for % parent remaining: mouse liver microsomes 0.5 mg/mL, 1 μM compound, NADPH, 30 min; for half-life at 1 μM: mouse, liver microsomes, pH 7.4, mouse liver microsomes, read-out: T 1/2 (MLM); for microsomal CLint at 1 μM: pH 7.4, mouse liver microsomes, read-out: CLint (MLM)
# Method: as §3, §4
# [6] = molecular target: T1, MERTK (cMER) (Homo sapiens, UniProt Q12866); test: MERTK kinase inhibition assay (Z-Lyte kinase assay kit); format: biochemical
# T1 sequence (Q12866 21-999): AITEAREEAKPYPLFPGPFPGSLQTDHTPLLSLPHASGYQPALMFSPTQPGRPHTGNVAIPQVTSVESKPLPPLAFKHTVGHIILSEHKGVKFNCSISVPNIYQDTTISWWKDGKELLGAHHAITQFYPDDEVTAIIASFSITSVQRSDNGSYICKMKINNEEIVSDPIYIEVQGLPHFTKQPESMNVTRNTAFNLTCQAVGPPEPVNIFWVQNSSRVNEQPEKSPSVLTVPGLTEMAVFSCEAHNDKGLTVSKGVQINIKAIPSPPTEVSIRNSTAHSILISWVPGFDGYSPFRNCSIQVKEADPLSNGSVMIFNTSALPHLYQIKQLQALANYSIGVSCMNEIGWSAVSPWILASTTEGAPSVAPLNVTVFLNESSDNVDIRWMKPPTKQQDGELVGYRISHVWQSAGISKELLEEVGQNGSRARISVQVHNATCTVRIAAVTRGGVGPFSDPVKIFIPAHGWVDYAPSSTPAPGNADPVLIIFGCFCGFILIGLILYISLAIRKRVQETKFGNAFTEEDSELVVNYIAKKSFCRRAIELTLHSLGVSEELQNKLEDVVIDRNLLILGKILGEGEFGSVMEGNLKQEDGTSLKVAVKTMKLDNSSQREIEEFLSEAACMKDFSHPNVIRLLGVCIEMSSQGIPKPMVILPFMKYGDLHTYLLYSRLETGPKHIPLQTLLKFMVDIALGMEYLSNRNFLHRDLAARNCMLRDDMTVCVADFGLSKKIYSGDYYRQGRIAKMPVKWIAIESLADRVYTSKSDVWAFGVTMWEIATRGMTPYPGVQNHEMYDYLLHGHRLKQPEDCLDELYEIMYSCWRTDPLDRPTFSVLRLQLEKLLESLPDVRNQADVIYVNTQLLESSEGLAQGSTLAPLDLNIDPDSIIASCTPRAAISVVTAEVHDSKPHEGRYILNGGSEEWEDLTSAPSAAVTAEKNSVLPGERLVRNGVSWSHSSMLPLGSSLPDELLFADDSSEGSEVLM
# Method: All the synthesized molecules were assessed for their kinase inhibitory activity against MERTK using a kinase inhibition assay.
# […] (z‐Lyte kinase assay kit‐tyr4 peptide) was utilized to determine MERTK inhibitory activity as per the protocol supplied by the supplier along with the kit. Briefly, the mixture of MERTK (cMER) / Tyr 02 (2X) was made using HEPES buffer (50 mM, pH 7.5) comprising polyoxyethylene lauryl ether solution (0.01%), MgCl2 (10 mM), MnCl2 (4 mM), EGTA (1 mM), and DTT (2 mM). The kinase solution of 10 μL was used as the final reaction solution. In the next step, the target molecules in varying concentrations were incubated with kinase solution for 1 h. Development reagent A (5 μL) of 1:128 dilution was added after the incubation period. The fluorescence was measured at Ex/Em 400, 445, and 520 nm using a microplate reader for the determination of final percentage inhibition. The percent phosphorylation was determined via the use of the emission ratio calculated from the division of Coumarin Emission (at 445 nm) to fluorescein emission (at 520 nm). %phosphorylation=1−Emission ratio×F100%−C100%/C0%−C100%+Emission ratioF100%−F0%
# [7] = Homo sapiens, MCF7, MCF-7 cells
SMILES,"IC50 [1, 7] [µM]",IC50 ([2]; Homo sapiens) [µM],IC50 ([3]; Homo sapiens) [µM],% parent remaining [4] [%],half-life at 1 μM [4] [h],microsomal CLint at 1 μM [4] [µL/min/mg],% parent remaining [5] [%],half-life at 1 μM [5] [h],microsomal CLint at 1 μM [5] [µL/min/mg],inhibition of MERTK ([6]; 1 and 10 μM test concentrations),MERTK inhibition compared with positive control staurosporine ([6]; listed as IK5),IC50 ([1]; MCF-7 cells) [µM],IC50 [2] [µM],IC50 [3] [µM]
"CN1CCC(c2ccc(Nc3ncnn4cc(-c5cc(F)c(F)c(F)c5)cc34)cc2F)CC1 [1K1, N‐(3‐Fluoro‐4‐(1‐Methylpiperidin‐4‐yl)phenyl)‐6‐(3,4,5‐trifluorophenyl)pyrrolo[2,1‐f][1,2,4]Triazin‐4‐Amine]",1.28 ± 0.014,8.63 ± 0.021,4.02 ± 0.015,71.7,1.04,22,70,0.972,24,–,–,–,–,–
"CCOc1c(Cl)cc(-c2cc3c(Nc4ccc(C5CCN(C)CC5)c(F)c4)ncnn3c2)cc1OC [1K2, 6‐(3‐Chloro‐4‐Ethoxy‐5‐Methoxyphenyl)‐N‐(3‐Fluoro‐4‐(1‐Methylpiperidin‐4‐yl)phenyl)pyrrolo[2,1‐f][1,2,4]Triazin‐4‐Amine]",0.44 ± 0.015,1.18 ± 0.019,1.7 ± 0.011,82.8,1.83,13,83.4,1.9,12,–,–,–,–,–
"COc1cc(-c2cc3c(Nc4ccc(C5CCN(C)CC5)c(F)c4)ncnn3c2)cc(Cl)c1F [1K4, 6‐(3‐Chloro‐4‐Fluoro‐5‐Methoxyphenyl)‐N‐(3‐Fluoro‐4‐(1‐Methylpiperidin‐4‐yl)phenyl)pyrrolo[2,1‐f][1,2,4]Triazin‐4‐Amine]",1.14 ± 0.011,0.89 ± 0.011,1.47 ± 0.014,75.8,1.25,18,91.7,3.97,6,–,–,–,–,–
"N.N.[Cl][Pt][Cl] [Cisplatin, cisplatin, reference compound]",–,–,–,–,–,–,–,–,–,–,–,4.93 ± 0.13,5.86 ± 0.009,5.42 ± 0.09

# More lines, main results first:
"IC50 [1, 7] [µM]",IC50 ([2]; Homo sapiens) [µM],IC50 ([3]; Homo sapiens) [µM],% parent remaining [4] [%],half-life at 1 μM [4] [h],microsomal CLint at 1 μM [4] [µL/min/mg],% parent remaining [5] [%],half-life at 1 μM [5] [h],microsomal CLint at 1 μM [5] [µL/min/mg],inhibition of MERTK ([6]; 1 and 10 μM test concentrations),SMILES,MERTK inhibition compared with positive control staurosporine ([6]; listed as IK5),IC50 ([1]; MCF-7 cells) [µM],IC50 [2] [µM],IC50 [3] [µM]
1.42 ± 0.021,1.44 ± 0.017,4.06 ± 0.019,65.7,0.615,28,57,0.823,38,–,"CN1CCC(c2ccc(Nc3ncnn4cc(-c5ccc(C(C)(C)C)cc5)cc34)cc2F)CC1 [1K3, 6‐(4‐(Tert‐butyl)phenyl)‐N‐(3‐Fluoro‐4‐(1‐Methylpiperidin‐4‐yl)phenyl)pyrrolo[2,1‐f][1,2,4]Triazin‐4‐Amine]",–,–,–,–
0.42 ± 0.017,0.36 ± 0.019,0.8 ± 0.011,94.9,6.61,3,79.7,1.54,15,approx. 42%,"CCOc1ccc(-c2cc3c(Nc4ccc(C5CCN(C)CC5)c(F)c4)ncnn3c2)cc1OC [1K5, 6‐(4‐Ethoxy‐3‐Methoxyphenyl)‐N‐(3‐Fluoro‐4‐(1‐Methylpiperidin‐4‐yl)phenyl)pyrrolo[2,1‐f][1,2,4]Triazin‐4‐Amine]",comparable inhibition to positive control staurosporine; also recorded: comparable inhibitory potential to the positive control drug staurosporine,–,–,–
